Source: the supplement of paper PMC5908809

Columns and labels:
[1] = test system: normal NK cells expanded with K562-aAPC; experiment: drug sensitivity score (DSS) (DSS units); higher = more sensitive; extreme values may be limits of the assay; details: 72 h; IL-2 2.5 ng/mL
Experimental: (§1)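 Drug sensitivity and resistance testing on K562-aAPC-expanded normal NK cells: 5 concentrations (10-fold steps over a 10,000-fold range), 72 h at 37 °C, viability by CellTiter-Glo normalised to DMSO and benzethonium chloride controls; DSS from the fitted curve.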

[2] = test system: KAI3 (IL-2 2.5 ng/mL); experiment: as above; details: 72 h
[3] = test system: IMC-1 (IL-2 20 ng/mL); experiment: as above; details: 72 h
[4] = test system: normal primary NK cells, pool 2 (3 donors) (IL-2 2.5 ng/mL); experiment: as above; details: 72 h
[5] = test system: normal primary NK cells, pool 1 (3 donors) (IL-2 2.5 ng/mL); experiment: as above; details: 72 h
[6] = test system: NKL (IL-2 2.5 ng/mL); experiment: as above; details: 72 h
[7] = test system: normal primary NK cells, pool 1 (3 donors), resting (IL-2 0 ng/mL); experiment: as above; details: 72 h
[8] = test system: NK-92 (IL-2 2.5 ng/mL); experiment: as above; details: 72 h
[9] = test system: DERL-7 (IL-2 2.5 ng/mL); experiment: as above; details: 72 h
[10] = test system: NK-YS (IL-2 2.5 ng/mL); experiment: as above; details: 72 h
[11] = test system: normal primary NK cells, pool 3 (3 donors) (IL-2 2.5 ng/mL); experiment: as above; details: 72 h
[12] = test system: YT (IL-2 2.5 ng/mL); experiment: as above; details: 72 h
[13] = test system: SNK-6 (IL-2 2.5 ng/mL); experiment: as above; details: 72 h
[14] = test system: KHYG-1 (IL-2 2.5 ng/mL); experiment: as above; details: 72 h
[15] = test system: KAI3 (IL-2 2.5 ng/mL); experiment: percent inhibition of viability; higher = more inhibition; details: 72 h
[16] = test system: IMC-1 (IL-2 20 ng/mL); experiment: as above; details: 72 h
[17] = test system: normal primary NK cells, pool 2 (3 donors) (IL-2 2.5 ng/mL); experiment: as above; details: 72 h
[18] = test system: normal primary NK cells, pool 1 (3 donors) (IL-2 2.5 ng/mL); experiment: as above; details: 72 h
[19] = test system: NKL (IL-2 2.5 ng/mL); experiment: as above; details: 72 h
[20] = test system: normal primary NK cells, pool 1 (3 donors), resting (IL-2 0 ng/mL); experiment: as above; details: 72 h
[21] = test system: NK-92 (IL-2 2.5 ng/mL); experiment: as above; details: 72 h
[22] = test system: DERL-7 (IL-2 2.5 ng/mL); experiment: as above; details: 72 h
[23] = test system: NK-YS (IL-2 2.5 ng/mL); experiment: as above; details: 72 h
[24] = test system: normal primary NK cells, pool 3 (3 donors) (IL-2 2.5 ng/mL); experiment: as above; details: 72 h
[25] = test system: YT (IL-2 2.5 ng/mL); experiment: as above; details: 72 h
[26] = test system: SNK-6 (IL-2 2.5 ng/mL); experiment: as above; details: 72 h
[27] = test system: KHYG-1 (IL-2 2.5 ng/mL); experiment: as above; details: 72 h
[28] = test system: normal NK cells expanded with K562-aAPC; experiment: as above; details: 72 h, IL-2 2.5 ng/mL
Experimental: as §1

COC1=CC(c2cc3ccccc3[nH]2)=N/C1=C\c1[nH]c(C)cc1C [Obatoclax] (max concentration tested 10000 nM)
Details | drug sensitivity score
[1] | 1.2
[2] | 4.2
[3] | 1.04
[4] | 2.84
[5] | 3.07
[6] | 15.6
[7] | 4.87
[8] | 11.6
[9] | 2.1
[10] | 2.34
[11] | 2.91
[12] | 5.06
[13] | 0.94
[14] | 3.67

percent inhibition of viability [%]
Details | 1 nM | 10 nM | 100 nM | 1000 nM | 10000 nM
[15] | 2.78 | 2.46 | -1.6 | 14.8 | 41.8
[16] | -4.53 | -1.62 | -0.16 | 4.8 | 18.5
[17] | -4.7 | -5.9 | 5.89 | 6.17 | 37.3
[18] | -0.48 | 0.81 | -4.45 | 6.95 | 39.1
[19] | -2.53 | -11.6 | 25.5 | 67.5 | 84.2
[20] | -9.87 | -1.78 | -10.3 | 10 | 59
[21] | -5.85 | 7.72 | 16.4 | 50 | 77.5
[22] | -3.53 | -2.23 | 2.25 | 2.35 | 36.5
[23] | -4.05 | -1.77 | 1.63 | 13.8 | 26.2
[24] | -3.41 | -11.5 | 3.42 | 9.76 | 34.5
[25] | 0.99 | 0.48 | 1.63 | 21.2 | 48.1
[26] | -0.44 | 6.97 | -8.81 | 6.17 | 16.6
[27] | -3.69 | -0.55 | 0.4 | 15.8 | 35.2
[28] | 0.42 | 2.59 | 3.2 | 6.46 | 21.2

C=CCc1cccc(/C=N/NC(=O)CN2CCN(Cc3ccccc3)CC2)c1O [PAC-1] (max concentration tested 10000 nM)
Details | drug sensitivity score
[1] | 8.67
[2] | 13
[3] | 5.83
[4] | 6.79
[5] | 5.57
[6] | 13.9
[7] | 4.76
[8] | 12
[9] | 6.53
[10] | 6.2
[11] | 7.93
[12] | 9.03
[13] | 11.3
[14] | 14.7

percent inhibition of viability [%]
Details | 1 nM | 10 nM | 100 nM | 1000 nM | 10000 nM
[15] | -5.72 | -3.85 | 4.89 | 62.6 | 96.5
[16] | -3.49 | -2.97 | 1.56 | 1.88 | 100
[17] | -14.6 | -2.22 | 5.41 | 12 | 86.3
[18] | -3.78 | -2.13 | -1.5 | 3.37 | 92.1
[19] | -9.29 | 8.69 | 4.48 | 69.2 | 97.8
[20] | -5.08 | -13.3 | -0.24 | -2.95 | 89.9
[21] | -11.7 | -11 | 17.2 | 50.3 | 103
[22] | -1.36 | 2.12 | -2.94 | 12.2 | 80.9
[23] | -1.58 | -1.32 | 5.2 | 5.35 | 97.7
[24] | -13.1 | -3.83 | 0.14 | 15.8 | 96
[25] | -0.7 | -1.17 | 5.18 | 22.7 | 99
[26] | 10.2 | 3.22 | 2.33 | 48.9 | 97.7
[27] | -1.19 | -1.29 | 5.59 | 74.1 | 104
[28] | -3.35 | 4.92 | 2.56 | 20.9 | 96.8

O=C(Nc1cccnc1)N1CCC(Cc2cccc(Oc3ccc(C(F)(F)F)cn3)c2)CC1 [PF-3845] (max concentration tested 10000 nM)
Details | drug sensitivity score
[1] | 0
[2] | 0.99
[3] | 2.22
[4] | 2
[5] | 3.87
[6] | 6.2
[7] | 3.74
[8] | 2.38
[9] | 2.45
[10] | 5.91
[11] | 0.32
[12] | 3.29
[13] | 0.86
[14] | 4

percent inhibition of viability [%]
Details | 1 nM | 10 nM | 100 nM | 1000 nM | 10000 nM
[15] | -1.12 | -6.82 | 4.46 | 0.3 | 25
[16] | 0.9 | -0.47 | 4.7 | 13.8 | 26.2
[17] | -12.4 | 3.71 | -1.82 | -3.09 | 43.9
[18] | -3.8 | -8.73 | -11.2 | 2.66 | 64.3
[19] | -5.58 | -15.9 | -8.48 | 16.5 | 66.2
[20] | -8.45 | -13.6 | -17.7 | -4.4 | 74
[21] | -1.76 | -21.3 | -8.96 | 4.25 | 35.6
[22] | 3.63 | -4.44 | 5.89 | 0.51 | 46.1
[23] | 4.37 | -3.27 | 0.47 | 10.5 | 75
[24] | -11.4 | -5.5 | -11.2 | -10.4 | 19.9
[25] | -2.27 | -9.8 | 1.6 | 5.87 | 44.7
[26] | -10 | -1.35 | -9.77 | -1.56 | 25.3
[27] | -4.25 | -6.89 | -4.44 | 4.55 | 60.7
[28] | -4.39 | -6.94 | -8.54 | -9.15 | -10

CC(=O)O[C@H]1C(=O)[C@@]2(C)[C@H]([C@H](OC(=O)c3ccccc3)[C@]3(O)C[C@H](OC(=O)[C@H](O)[C@@H](NC(=O)c4ccccc4)c4ccccc4)C(C)=C1C3(C)C)[C@]1(OC(C)=O)CO[C@@H]1C[C@@H]2O [Paclitaxel] (max concentration tested 1000 nM)
Details | drug sensitivity score
[1] | 10.8
[2] | 18.9
[3] | 30.2
[4] | 0.27
[5] | 0
[6] | 26.6
[7] | 0
[8] | 18.8
[9] | 30.3
[10] | 22.8
[11] | 0
[12] | 27.5
[13] | 23.7
[14] | 26.9

percent inhibition of viability [%]
Details | 0.1 nM | 1 nM | 10 nM | 100 nM | 1000 nM
[15] | -12.1 | 9.77 | 53 | 60.6 | 46.1
[16] | -7.88 | -0.55 | 98.5 | 100 | 99.5
[17] | -2.11 | -0.3 | -9.26 | 1.41 | 14
[18] | -14.5 | -13.4 | -1.12 | -4.6 | 3.64
[19] | -17.5 | -11.8 | 84.1 | 93.2 | 87.1
[20] | -38.3 | -37.4 | -2.05 | -14 | 0.96
[21] | -18.6 | -5.15 | 11.3 | 92.6 | 94
[22] | 2.23 | -0.79 | 99.4 | 100 | 99.4
[23] | -2.51 | -5.4 | 71.3 | 77.6 | 64.6
[24] | -12.4 | -15.8 | -13.3 | -0.71 | 10.2
[25] | -2.12 | -2.24 | 82.5 | 102 | 93.8
[26] | 6.76 | -3.54 | 75.5 | 79 | 72.6
[27] | -5.68 | -0.23 | 77.2 | 106 | 99.2
[28] | 0.76 | -4.63 | 3.65 | 56.1 | 55.1

CCCCc1nc2cc(/C=C/C(=O)NO)ccc2n1CCN(CC)CC [Pracinostat] (max concentration tested 10000 nM)
Details | drug sensitivity score
[1] | 21.7
[2] | 25.4
[3] | 19.6
[4] | 20.6
[5] | 21.1
[6] | 24.6
[7] | 22.5
[8] | 23.6
[9] | 21.4
[10] | 20.3
[11] | 19.9
[12] | 20.1
[13] | 20.1
[14] | 22.1

percent inhibition of viability [%]
Details | 1 nM | 10 nM | 100 nM | 1000 nM | 10000 nM
[15] | -0.25 | 10.9 | 59.8 | 100 | 106
[16] | -2.79 | 2.79 | 10 | 100 | 101
[17] | -8.41 | -3.58 | 22.6 | 94.5 | 94.8
[18] | -0.69 | -4.78 | 22.1 | 96.7 | 97.5
[19] | -9.49 | 12.2 | 57 | 92.3 | 105
[20] | 0.06 | -6.1 | 49.2 | 86.2 | 90.8
[21] | 0.01 | -2.17 | 42.9 | 103 | 107
[22] | 1.33 | -8.53 | 21.4 | 100 | 100
[23] | -2.5 | 3.97 | 26.5 | 93.4 | 106
[24] | -9.56 | -4.29 | 13.1 | 97.8 | 98.9
[25] | 2.35 | -0.3 | 12.7 | 100 | 105
[26] | -6.98 | 1.26 | 17.8 | 96.5 | 100
[27] | 0.14 | -0.26 | 26.9 | 103 | 107
[28] | 1.37 | 8.83 | 23.6 | 100 | 101
